{"source": "patent US20240366558A1", "about": "“TREATING LONG COVID-19 WITH UROLITHINS” (Amazentis SA, priority 2021, published 2024)", "key": {"Long COVID": {"tested_on": "Long COVID", "test": "Patients afflicted with Long COVID administered 500 mg Mitopure (Urolithin A)", "assay_type": "in vivo, human", "details": "three Long COVID patients, patient-indicated", "experimental": "Three patients afflicted with Long COVID were administered 500 mg Mitopure™ (Urolithin A). Each patient indicated improvement in symptoms including reduced fatigue and improved muscle function."}, "human PBMCs": {"tested_on": "human PBMCs", "test": "RNA-seq transcriptomic analysis / GSEA of PBMCs from healthy elderly supplemented with Urolithin A", "assay_type": "in vivo", "details": "500 mg/day for 28 days, end of treatment vs baseline, placebo-filtered", "experimental": "RNA was extracted from frozen human PBMCs and quality of extraction controlled with Agilent Fragment Analyzer System. RNA-seq library was prepared as strand-specific cDNA library, after the following steps: Purification of poly-A containing mRNA molecules; mRNA fragmentation; Random primed cDNA synthesis (strand-specific); Adapter ligation and adapter specific PCR amplification. RNA-seq run was performed with the NovaSeq6000 using S4 flowcells with 2×150 bp giving at least 30 million read pairs per sample\nThe RNA-Seq reads were aligned to the reference human transcriptome using Bowtie generating genome/transcriptome alignments. TopHat identifid the potential exon-exon splice junctions of the initial alignment. Then Cufflinks identified and quantified the transcripts from the preprocessed RNA-Seq alignment assembly. After this, Cuffmerge merged the identified transcript pieces to full length transcripts and annotates the transcripts based on the given annotations. Finally, merged transcripts from two or more samples/conditions were compared, using Cuffdiff to determine the differential expression levels at transcript and gene level including a measure of significance between samples/conditions.\nGene set enrichment analysis (GSEA) was conducted using R package clusterProfiler, v. 3.18.068. Enrichments of Gene Ontology (GO) Biological Process (BP) was investigated. All the genes subjected to the DE analysis and that passed the independent filtering of DEseq2 were ranked by shrunk log 2 fold change values and used as input data for the analysis. Ensembl IDs of the genes were converted to Entrez IDs for the analysis using biomaRt, v. 2.46. Minimum and maximum genes et sizes were set to 15 and 500, respectively. In order to adjust for the placebo effect, the GSEA results of Urolithin A at 500 mg were filtered to exclude enriched terms (p-value <0.05) obtained from the GSEA of the Placebo DEGs. Key pathways were visualised as bar plots ranked by Normalized Enrichment score (NES).\nRNA-seq transcriptomic analysis was performed in healthy elderly supplemented with either Urolithin A (UA) at 500 mg/day or Placebo for 28 days. Peripheral blood mononuclear cells (PBMCs) were isolated and collected at baseline and at the end of the study. RNA was extracted from these subjects and used to perform RNA-seq and determine biological pathways modulated specifically by Urolithin A, but not Placebo, comparing end-of treatment to baseline"}}}
{"smiles": "O=c1oc2cc(O)ccc2c2ccc(O)cc12", "note": "[Urolithin A, urolithin A]", "values": [{"measurement": "fatigue", "setting": "Long COVID", "result": "reduced"}, {"measurement": "muscle function", "setting": "Long COVID", "result": "improved"}, {"measurement": "symptoms", "setting": "Long COVID", "result": "improvement"}, {"measurement": "Gene Ontology gene set \"mitochondrial gene expression\"", "setting": "human PBMCs", "result": "up-regulated"}, {"measurement": "Gene Ontology gene set \"mitochondrial respiratory chain complex assembly\"", "setting": "human PBMCs", "result": "up-regulated"}, {"measurement": "Gene Ontology gene set \"neutrophil activation\"", "setting": "human PBMCs", "result": "down-regulated"}, {"measurement": "Gene Ontology gene set \"oxidative phosphorylation\"", "setting": "human PBMCs", "result": "up-regulated"}, {"measurement": "Gene Ontology gene set \"regulation of response to cytokine stimulus\"", "setting": "human PBMCs", "result": "down-regulated"}]}
